# Measured values published in patent publication US10632144B2, “Low polydispersity, low molecular weight biotechnological chondroitin sulfate with anti-inflammatory and antiarthritis activity and use thereof in the prevention of osteoarthritis” (Gnosis S.p.A., priority 2012, dated 2020).
# What was measured:
# [1] = tested on: Sprague-Dawley rats; experiment: Acute toxicity after oral administration; type: in vivo; conditions: up to 2000 mg/kg body weight
# Experimental: (§1) The CS according to the invention was also tested for its toxicological safety in animals and on cell cultures according to various protocols designed to assess its potential genotoxicity at cell level and acute oral toxicity in the rat. All the tests used were validated and conducted according to OECD guidelines for pharmaceutical products.
# Finally, acute toxicity after oral administration was examined in Sprague-Dawley rats up to the dose of 2000 mg/kg of body weight.
# [2] = tested on: interleukin-6 (IL-6); experiment: AA rat model, biotech vs animal LMW-CS: IL-6 plasma levels; type: in vivo, male Lewis rats
# Experimental: (§2) As described in Example 5, commercial (high-molecular-weight) chondroitin sulfate material was subjected to depolymerization according to Cho, under controlled condition, until the desired mean MW was reached.
# (§3) The product of Example 5 was tested in vivo vs. biotechnological chondroitin of the invention obtained as described in Ex. 4 (equivalent to the product obtained from any of the Examples 1, 2 or 3).
# (§4) Two key parameters were analyzed to determine the efficacy of the treatment in reducing the inflammation related to osteoarthritis: C reactive protein (CRP) and interleukin-6 (IL-6) plasma levels. […] CRP is another important marker for systemic inflammation, its plasmatic level rises up during arthritis progression. AA was induced in male Lewis rats with a single intradermal injection of heat-inactivated Mycobacterium butyricum in […] Freund's adjuvant. The following anti-osteoarthritic treatment consisted in daily oral (900 mg/kg b.w.) administrations of LMW-CS starting from day 0, i.e. the day of bacterial inoculation.
# [3] = tested on: C reactive protein (CRP); experiment: AA rat model, biotech vs animal LMW-CS: CRP plasma levels; type: in vivo, male Lewis rats
# Experimental: as §2, §3, §4
# [4] = tested on: auxotrophic strains of E. coli; experiment: Bacterial reverse mutation test (OECD 471); type: cell-based
# Experimental: as §1
# (§5) The biotechnological CS was subjected to mutagenesis tests in bacterial cells (bacterial reverse mutation, Ref. OECD 471) which tested the ability of the product to induce the appearance of reverse mutants in auxotrophic strains of E. coli and Salmonella typhimurium.
# [5] = tested on: auxotrophic strains of Salmonella typhimurium; experiment: Bacterial reverse mutation test (OECD 471); type: cell-based
# Experimental: as §1, §5
# [6] = tested on: rats with Adjuvant Arthritis (AA); experiment: Adjuvant arthritis (AA) in rats: arthritis score; type: in vivo, male Lewis rats; set-up: key to Arthritis score: sum of oedema (1-8), forepaw diameter (1-5), scab diameter (1-5) scores
# Experimental: (§6) AA was induced by a single intradermal injection of Mycobacterium butyricum in […] Freund's adjuvant. The study involved one group of healthy animals (HC), one group of untreated arthritic animals (AC) and two groups of arthritic animals treated with two different regimens. The first treatment regimen involved pre-treatment consisting of administration of 900 mg/kg of biotechnological CS a day for 14 days before arthritis was induced, continuing for 28 days after the induction of AA (PT). The second treatment regimen involved the administration of 900 mg/kg of biotechnological CS a day only during the 28 days after induction of AA (T).
# (§7) 40 male Lewis rats weighing between 150 and 190 g were divided at random into four groups of 10 animals each, housed in polypropylene cages in an environment maintained at the temperature of 22±2° C., and fed on a standard laboratory diet with unlimited access to water.
# (§8) The experimental groups were as follows:
# (§9) 3) A group of arthritic rats orally treated with biotechnological CS at the dose of 900 mg/day per kg of body weight for 28 days after induction of AA (days 0-28 of the experiment) (T).
# (§10) 4) A group orally pre-treated with biotechnological CS at the dose of 900 mg/day per kg of body weight for 14 days preceding the induction of AA, and for the 28 days after induction of AA (days −14 to 28 of the experiment) (PT).
# (§11) The CS of the invention was dissolved in distilled water at the concentration of 20 mg/ml and administered orally as a single daily dose by gavage.
# The arthritis score was evaluated by allocating a score to the observation of paw joint swelling (oedema), the extent of periarticular erythema and the diameter of the scab at the adjuvant injection site at the base of the tail. The arthritis score or arthrogram was measured as the sum total of oedema (in ml, score 1 to 8), plus the diameter of the forepaw (in mm, max score 1 to 5), plus the diameter of the scab at the site of application of Mycobacterium butyricum measured parallel to the spinal column (in mm, max score 1 to 5), for each animal.
# [7] = tested on: rats with Adjuvant Arthritis (AA); experiment: Adjuvant arthritis (AA) in rats: hind paw oedema; type: in vivo, male Lewis rats
# Experimental: as §6, §7, §8, §9, §10, §11
# The oedema that developed as a consequence of arthritis was measured by observing the increase in volume of the hind paw with a caliper suitable for the measurement. The measurements were performed before the induction of AA (day 0) and on days 7, 14, 21 and 28 of the study.
# The data were expressed as the percentage increase in oedema calculated with the following formula: [(Dayn/Day0)×100]−100, Day0 being the measurement on the initial day and Dayn the measurement on the day considered.
# [8] = tested on: rats with Adjuvant Arthritis (AA); experiment: Adjuvant arthritis (AA) in rats: change in body weight; type: in vivo, male Lewis rats; conditions: for increase in body weight relative to that of the healthy controls: 900 mg/kg/day, end of the study
# Experimental: as §6, §7, §8, §9, §10, §11
# The body weight of the rats was measured before induction of AA (day 0), on days 7, 14 and 21, and at the end of the treatment (day 28). The effect of the treatment on this parameter was evaluated by comparing the weight increases of the different groups during the treatment period.
# [9] = daily oral 900 mg/kg b.w. from day 0, day 14
# [10] = daily oral 900 mg/kg b.w., 14 days of treatment
# [11] = Pre-Treatment (PT): 900 mg/kg/day oral, days −14 to 28, day 0
# [12] = Pre-Treatment (PT): 900 mg/kg/day oral, days −14 to 28, day 7
# [13] = Pre-Treatment (PT): 900 mg/kg/day oral, days −14 to 28, day 14
# [14] = Pre-Treatment (PT): 900 mg/kg/day oral, days −14 to 28, day 21
# [15] = Treatment (T): 900 mg/kg/day oral, days 0-28, day 0
# [16] = Treatment (T): 900 mg/kg/day oral, days 0-28, day 7
# [17] = Treatment (T): 900 mg/kg/day oral, days 0-28, day 14
# [18] = Treatment (T): 900 mg/kg/day oral, days 0-28, day 21
# [19] = Treatment (T): 900 mg/kg/day oral, days 0-28, day 28
# [20] = Pre-Treatment (PT): 900 mg/kg/day oral, days −14 to 28, day 28
substance,measurement,setting,value
Low-molecular-weight chondroitin sulfate sodium salt [LMW-CS],clinical signs,[1]; 14 days observation,did not show any clinical signs of suffering
same,mortality,[1]; 14 days observation,no mortality occurred
same,autopsy of tissues and organs,[1]; end of the study,did not indicate any signs of toxicity
same,IL-6 plasma levels,[2]; [9],233.9 pg/mL
same,effect of treatment on IL-6 plasma levels,[2]; [10],decreased
same,CRP plasma levels,[3]; [9],548.8 µg/mL
same,effect of treatment on CRP plasma levels,[3]; [10],decreased
same,bacterial mutagenicity (reverse mutants),[4],No significant increase
same,bacterial mutagenicity (reverse mutants),[5],No significant increase
same,Arthritis score,[6]; [11],10.0
same,Arthritis score,[6]; [12],10.1
same,Arthritis score,[6]; [13],13.1
same,Arthritis score,[6]; [14],15.8
same,Arthritis score,"[6]; Pre-Treatment (PT): 900 mg/kg/day oral, days −14 to 28, day 28, listed as biotechnological CS, sulfate sodium salt",19
same,Arthritis score,"[6]; Pre-Treatment (PT): 900 mg/kg/day oral, days −14 to 28, day 28, sulfate sodium salt",19.0
same,Arthritis score,[6]; [15],10.0
same,Arthritis score,[6]; [16],10.0
same,Arthritis score,[6]; [17],18.1
same,Arthritis score,[6]; [18],22.7
same,Arthritis score,[6]; [19],23.0
same,influence on arthritis score during the study period,"[6]; Treatment-only (T) group, 900 mg/kg/day",did not significantly influence
same,Change in hind paw swelling: [(Dayn/Day0) × 100] − 100,[7]; [11],0.0%
same,Change in hind paw swelling: [(Dayn/Day0) × 100] − 100,[7]; [12],15.4%
same,Change in hind paw swelling: [(Dayn/Day0) × 100] − 100,[7]; [13],26.7%
same,Change in hind paw swelling: [(Dayn/Day0) × 100] − 100,[7]; [14],46.5%
same,Change in hind paw swelling: [(Dayn/Day0) × 100] − 100,[7]; [20],49.7%
same,oedema developed in the hind paw vs untreated controls,"[7]; Pre-treated animals (PT), 900 mg/kg/day",significantly reduced
same,Change in hind paw swelling: [(Dayn/Day0) × 100] − 100,[7]; [15],0.0%
same,Change in hind paw swelling: [(Dayn/Day0) × 100] − 100,[7]; [16],13.1%
same,Change in hind paw swelling: [(Dayn/Day0) × 100] − 100,[7]; [17],34.5%
same,Change in hind paw swelling: [(Dayn/Day0) × 100] − 100,[7]; [18],62.8%
same,Change in hind paw swelling: [(Dayn/Day0) × 100] − 100,[7]; [19],61.4%
same,Change in body weight: Δ(dayn − day0),[8]; [11],0.0 g
same,Change in body weight: Δ(dayn − day0),[8]; [12],92.96 g
same,Change in body weight: Δ(dayn − day0),[8]; [13],107.26 g
same,Change in body weight: Δ(dayn − day0),[8]; [14],93.39 g
same,Change in body weight: Δ(dayn − day0),[8]; [20],108.63 g
same,increase in body weight relative to that of the healthy controls,[8]; Pre-treatment (PT),73%
same,Change in body weight: Δ(dayn − day0),[8]; [15],0.0 g
same,Change in body weight: Δ(dayn − day0),[8]; [16],85.19 g
same,Change in body weight: Δ(dayn − day0),[8]; [17],89.19 g
same,Change in body weight: Δ(dayn − day0),[8]; [18],68.39 g
same,Change in body weight: Δ(dayn − day0),[8]; [19],79.78 g
same,increase in body weight relative to that of the healthy controls,[8]; Treatment alone (T),54%
